Patent US6875761B2 (Eisai Co., Ltd., priority 1997, dated 2005)
Where a name gives a salt, the structure may show the parent alone.

melting point	Structure (SMILES)
66 to 67 °C	CCN1CCN(c2nc(-c3ccc(CC(C)O)cc3)cc3ccsc23)CC1 (stereo not drawn) (as salt: hydrochloride) [Example 436, 7-(4-ethylpiperazin-1-yl)-5-[4-(2-hydroxypropyl)phenyl]thieno[2,3-c]pyridine dihydrochloride]
168 to 172 °C	CCN1CCN(c2nc(-c3ccc4c(c3)CC(CO)CO4)cc3ccccc23)CC1 (stereo not drawn) (as salt: hydrochloride) [Example 122, 3-(3-Hydroxymethylchroman-6-yl)-1-(4-Ethylpiperazin-1-yl)Isoquinoline Hydrochloride]
160 to 162 °C (dec.)	CCN1CCN(c2nc(-c3ccc(N(C)C)cc3)cc3ccccc23)CC1 (as salt: hydrochloride) [Example 66, 3-[4-(N,N-Dimethylamino)Phenyl]-1-(4-Ethylpiperazin-1-Yl)Isoquinoline Dihydrochloride]
224 to 225 °C (dec.)	CCN1CCN(c2nc(-c3ccc(S(=O)(=O)CCCF)cc3)cc3ccccc23)CC1 (as salt: hydrochloride) [Example 355, 1-(4-ethylpiperazin-1-yl)-3-[4-(3-fluoropropyl)sulfonylphenyl]isoquinoline dihydrochloride]
219 to 221 °C	CCN1CCN(Cc2nc(-c3ccc(OC)cc3)cc3ccccc23)CC1 (as salt: oxalate) [Example 328, 3-(4-methoxyphenyl)-1-(4-ethylpiperazin-1-yl)methylisoquinoline oxalate]
130 °C (dec.)	CCN1CCN(c2nc(-c3ccc(OCCO)cc3)cc3cscc23)CC1 (as salt: oxalate) [Example 278, 4-(4-ethylpiperazin-1-yl)-6-[4-(2-hydroxyethoxy)phenyl]thieno-[3,4-c]pyridine oxalate]
227 to 235 °C	CCN1CCN(c2nc(-c3ccc(OC)cc3)c(OC)c3ccccc23)CC1 (as salt: hydrochloride) [Example 221, 1-(1-ethylpiperazin-4-yl)-4-methoxy-3-(4-methoxyphenyl)isoquinoline dihydrochloride]
138 to 140 °C	OCCOc1ccc(-c2cc3sccc3c(N3CCN(CCF)CC3)n2)cc1 (as salt: hydrochloride) [Example 295, 4-[4-(2-fluoroethyl)piperazin-1-yl]-6-[4-(2-hydroxyethoxy)phenyl]thieno[3,2-c]pyridine]
127 to 129 °C	CCCS(=O)(=O)c1ccc(-c2cc3ccccc3c(N3CCN(CCO)CC3)n2)cc1 (as salt: oxalate)
198 to 201 °C	CCN1CCN(c2nc(-c3ccc(NS(=O)(=O)CC)cc3)cc3ccccc23)CC1 (as salt: hydrochloride) [Example 71, 3-(4-Ethylsulfonylaminophenyl)-1-(4-Ethylpiperazin-1-Yl)Isoquinoline Hydrochloride]
267 to 268 °C	CCN1CCN(c2nc(-c3ccc(N)cc3)cc3ccccc23)CC1 (as salt: hydrochloride) [Example 65, 3-(4-Aminophenyl)-1-(4-Ethylpiperazin-1-Yl)Isoquinoline Hydrochloride]
95 to 97 °C	CCN1CCN(c2nc(C(O)c3ccc(OC)cc3)cc3ccccc23)CC1 (stereo not drawn) (as salt: oxalate) [Example 104, 3-[α-Hydroxy-(4-methoxybenzyl)]-1-(4-ethylpiperazin-1-yl)isoquinoline Oxalate]
260 to 262 °C	CCN1CCN(c2nc(-c3ccc(CS(C)(=O)=O)cc3)cc3ccccc23)CC1 (as salt: hydrochloride) [Example 90, 3-(4-Methylsulfonylmethylphenyl)-1-(4-ethylpiperazin-1-yl)isoquinoline Hydrochloride]
204 to 205 °C	CCN1CCN(c2nc(-c3ccc(CCCO)nc3)cc3ccsc23)CC1 (as salt: hydrochloride) [Example 429, 7-(4-ethylpiperazin-1yl)-5-[2-(3-hydroxypropyl)pyridin-5-yl]thieno[2,3-c]pyridine hydrochloride]
150.5 to 152 °C	CCN1CCN(c2nc(-c3ccc(C(=O)NC)cc3)cc3ccsc23)CC1 (as salt: hydrochloride)
129 to 131 °C	CCN1CCN(c2nc(-c3ccc(OCCCc4ccncc4)cc3)cc3ccccc23)CC1 (as salt: hydrochloride) [Example 57, 3-{4-[3-(4-Pyridyl)Propoxy]Phenyl}-1-(4-Ethylpiperazin-1-Yl)Isoquinoline Hydrochloride]
150 to 151.5 °C	CCN1CCN(c2nc(-c3ccc(S(=O)(=O)CC)cc3)cc3ccccc23)CC1 (as salt: hydrochloride) [Example 366, 1-(4-ethylpiperazin-1-yl)-3-[4-(ethylsulfonyl)phenyl]isoquinoline dihydrochloride]
248 to 250 °C (dec.)	CCN1CCN(c2nc(-c3ccc(OCCO)c(C(C)C)c3)cc3ccccc23)CC1 (as salt: hydrochloride) [Example 41, 3-[3-isopropyl-4-(2-hydroxyethoxy)phenyl]-1-(4-ethylpiperazin-1-yl)isoquinoline hydrochloride]
228 to 230 °C	CCN1CCN(c2nc(-c3ccccc3O)cc3ccccc23)CC1.Cl
164 to 166 °C	COc1ccc(-c2cc3ccccc3c(N3CCN(CCC#N)CC3)n2)cc1 (as salt: hydrochloride)
170 to 173 °C	CCN1CCN(c2nc(C3CCCc4cc(OC)ccc43)cc3ccccc23)CC1 (stereo not drawn) (as salt: oxalate)
223 to 238 °C	COc1ccc(-c2cc3ccccc3c(N3CCC(N4CCCCC4)CC3)n2)cc1 (as salt: hydrochloride) [Example 325, 1-[4-(piperidin-1-yl)piperidine-1-yl]-3-(4-methoxyphenyl)isoquinoline dihydrohcloride]
132 to 134 °C	CCN1CCN(c2nc(-c3ccc(CCCO)c(C#N)c3)cc3ccsc23)CC1 (as salt: oxalate) [Example 262, 5-[4-(3-hydroxypropyl)-3-cyanophenyl]-7-(4-ethylpiperazin-1-yl)thieno[2,3-c]pyridine Oxalate]
120 to 128 °C	CCN1CCN(c2nc(C#CCCc3ccccc3)cc3ccccc23)CC1 (as salt: hydrochloride) [Example 182, 1-(1-Ethylpiperazin-4-Yl)-3-[4-Phenyl-1-Butynyl)Isoquinoline Dihydrochloride]
138 to 139 °C	CCN1CCN(c2nc(-c3ccc(C4(CCO)CCOCC4)cc3)cc3ccccc23)CC1 (as salt: hydrochloride)
155 to 156 °C	CCC(C)NS(=O)(=O)c1ccc(-c2cc3ccccc3c(N3CCN(CC)CC3)n2)cc1 (stereo not drawn) (as salt: hydrochloride) [Example 360, 1-(4-ethylpiperazin-1-yl)-3-{4-[N-(1-methylpropyl)sulfamoyl]phenyl}isoquinoline dihydrochloride]

Structure (SMILES)	melting point
CCN1CCN(c2nc(-c3cc(F)c(OCCO)c(F)c3)cc3ccccc23)CC1 (as salt: hydrochloride) [Example 370, 1-(4-ethylpiperazin-1-yl)-3-[3,5-difluoro-4-(2-hydroxyethoxy)phenyl]isoquinoline]	112.5 to 114 °C
CCN1CCN(c2nc(-c3ccc(CCCOC)cc3)cc3ccccc23)CC1 (as salt: hydrochloride) [Example 333, 1-(4-ethylpiperazin-1-yl)-3-[4-(3-(methoxypropyl)phenyl]isoquinolinedihydrochloride]	191 to 192 °C (dec.)
CCN1CCN(c2nc(-c3ccc(C(F)CCO)cc3)cc3ccccc23)CC1 (stereo not drawn) (as salt: hydrochloride) [Example 27, 1-(1-Ethylpiperazin-4-yl)-3-[4-(3-hydroxy-1-fluoropropyl)phenyl]isoquinoline]	141 to 146 °C
CCN1CCN(c2nc(-c3ccc(OCCn4ccnc4)cc3)cc3ccccc23)CC1 (as salt: hydrochloride) [Example 56, 3-{4-[2-(1-Imidazonyl)Ethoxy]phenyl}-1-(4-Ethylpiperazin-1-Yl)Isoquinoline Hydrochloride]	160 to 162 °C
CCN1CCN(c2nc(-c3ccc(CCCCO)cc3)cc3ccccc23)CC1 (as salt: hydrochloride) [Example 23, 3-[4-(4-hydroxybutyl)phenyl]-1-(4-ethylpiperazin-1-yl)isoquinoline hydrochloride]	140 to 144 °C
CCN1CCN(c2nc(-c3ccc(OCCO)cc3OC)cc3ccccc23)CC1 (as salt: hydrochloride) [Example 425, 1-(4-ethylpiperazin-1-yl)-3-[4-(2-hydroxyethoxy)-2-methoxyphenyl]isoquinoline]	140 to 142 °C
CCN1CCN(c2nc(-c3ccc(C(O)C4CCCCC4)cc3)cc3ccccc23)CC1 (stereo not drawn) (as salt: hydrochloride) [Example 409, 1-(4-ethylpiperazin-1-yl)-3-[4-(cyclohexylhydroxymethyl)phenyl]isoquinoline]	153 to 155 °C
CCN1CCN(c2nc(-c3ccc(CO)c(CO)c3)cc3ccccc23)CC1 (as salt: hydrochloride) [Example 394, 1-(4-Ethylpiperazin-1-yl)-3-[(3,4-Dihydroxymethyl)Phenyl]Isoquinoline Dihydrochloride]	130.5 to 132 °C (dec.)
CCN1CCN(c2nc(-c3ccc(OC)cc3OC)cc3ccccc23)CC1 (as salt: hydrochloride) [Example 12, 3-(2,4-dimethoxyphenyl)-1-(4-ethylpiperazin-1-yl)isoquinolin Dihydrochloride]	145 to 148 °C
CCN1CCN(c2nc(-c3ccc(C(C)(C)CCO)cc3)cc3ccccc23)CC1 (as salt: oxalate) [Example 390]	134 to 135 °C
CCN1CCN(c2nc(C#Cc3ccc(OCCO)cc3)cc3ccccc23)CC1 (as salt: hydrochloride) [Example 183, 1-(1-Ethylpiperazin-4-Yl]-3-[4-(2-Hydroxyethoxy)Phenylethynyl]Isoquinoline Dihydrochloride]	205 to 208 °C
CCN1CCN(c2nc(-c3ccc(OCCO)cc3)cc3sccc23)CC1 (as salt: hydrochloride) [Example 286, dihydrochloride]	128 to 129 °C
CCCS(=O)(=O)c1ccc(-c2cc3ccccc3c(N3CCN(CC)CC3)n2)cc1 (as salt: hydrochloride) [Example 349, 1-(4-ethylpiperazin-1-yl)-3-[4-propylsulfonyl)phenyl]isoquinoline dihydrochloride]	240.5 to 242 °C (dec.)
